Laboratory results: patent US20230338473A1, “AN[…] TARGETING IL-2, IL-9, AND IL-15 SIGNALING FOR THE TREATMENT OF CYTOK[…] AND CYTOKINE STORM ASSOCIATED DISORDERS” (priority 2020, published 2023)

Experiments:
IL-15 = assay: PT-18β proliferation assay (WST-1), IL-15; format: cell-based; conditions: PT-18β cells, 1 nM cytokine, BNZ-γ as 1:20 or 1:60 dilution of HEK293T supernatant, 2 days
Excerpt: (§1) For each of the six γc-cytokines, indicator cell lines: NK92, a human NK cell line NK92 available by American Type Culture Collection (ATCC) (catalog # CRL-2407), CTLL-2, a murine CD8 T cells line available from ATCC, and PT-18, a murine mast cell line and its subclone PT-18β, is transfected with human IL-2Rβ gene to make the cells responsive to IL-2 and IL-15 (Tagaya et al., 1996, EMBO J. 15:4928-39), and is used to quantitatively determine the γc-cytokine’s growth-promoting activity (See Current protocols in Immunology from Wiley and Sons for a methodological reference).
(§2) Once the appropriate doses of the cytokine that yield the 50% and 95% maximum response from the indicator cell line is determined, various concentrations (ranging from 1 pM to 10 µM) of the purified or synthesized custom derivative peptide is added to each well containing the cytokine and indicator cells. The reduction in light absorbance at 450 nm is used as an indicator of inhibition of cytokine-stimulated cellular proliferation. Typically, the cells are stimulated by the cytokines such that the absorbance of the well containing indicator cell line and the cytokine is between 2.0 and 3.0, which is reduced to a range of 0.1 to 0.5 by the addition of inhibitory peptides. […]
(§3) The growth-responses of the cells were determined 2 days after the introduction of BNZ-γpeptide and the cytokine using the WST-1 assay. […]

IL-9 = assay: PT-18β proliferation assay (WST-1), IL-9; format: cell-based; conditions: PT-18β cells, 1 nM cytokine, BNZ-γ as 1:20 or 1:60 dilution of HEK293T supernatant, 2 days
Excerpt: as §1, §2, §3

IL-3 = assay: PT-18β proliferation assay (WST-1), IL-3 negative control; format: cell-based; conditions: PT-18β cells, 1 nM cytokine, BNZ-γ as 1:20 or 1:60 dilution of HEK293T supernatant, 2 days
Chain of IL-3 (P01586 27-166): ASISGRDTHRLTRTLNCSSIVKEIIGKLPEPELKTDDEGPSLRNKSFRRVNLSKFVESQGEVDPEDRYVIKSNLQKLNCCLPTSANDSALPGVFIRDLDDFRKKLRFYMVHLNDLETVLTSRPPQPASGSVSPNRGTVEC
Excerpt: as §1, §2, §3

IL-4 = assay: PT-18β proliferation assay (WST-1), IL-4; format: cell-based; conditions: PT-18β cells, 1 nM cytokine, BNZ-γ as 1:20 or 1:60 dilution of HEK293T supernatant, 2 days
Excerpt: as §1, §2, §3

IL-2 = assay: CTLL-2 proliferation assay (3H-thymidine), IL-2; format: cell-based; conditions: CTLL-2 cells, 50 pM IL-2, BNZ-γ 0.1, 1, 10 µM, 20 hours, 3H-thymidine (FIG. 3B)
Experimental: In a similar assay, the murine cell line CTTL2 was used. In this assay the cells were cultured with 0.5 nM of recombinant IL-2 in RPMI 10% fetal Calf Serum. To set up the proliferation assay, cells were washed from the cytokines 3 times. Cells were seeded at 1 × 10(5) cells per well of a 96-well plate with final concentration of 50 pM of IL-2 or IL-15. Various concentration of BNZ-γ peptide (0.1, 1, and 10 µM) was added to each well. Cells were cultured for 20 hours and in the last 4 hours, ^3H-thymidine was added to the plates. Cells were harvested and radioactivity measured to determine cell proliferation levels.
Inhibition of γc-cytokine-induced proliferation of an indicator cell population by antagonist custom derivative peptides is measured by the 3H-thymidine incorporation assay. Briefly, radiolabeled thymidine (1 microCi) is given to 20-50,000 cells undergoing proliferation in the presence of cytokines. The cell-incorporated radioactivity is measured by trapping cell-bound radioactivity to a glass-fiber filter using a conventional harvester machines (Example, Filtermate Universal Harvester from Perkin-Elmer), after which the radioactivity is measured using a b-counter (Example 1450, Trilux microplate scintillation counter).

STAT5 = assay: IL-15-mediated tyrosine phosphorylation of STAT5 in PT-18β cells (immunoblot); format: cell-based; conditions: PT-18β cells stimulated by IL-15, anti-phospho-STAT5 immunoblot
Excerpt: In addition to stimulating cellular proliferation, binding of the γc-cytokines to their receptors causes a diverse array of intracellular events. (Rochman et al., 2009, Nat Rev Immunol 9:480-90; Pesu et al., 2005, Immunol Rev 203:127-42). Immediately after the cytokine binds to its receptor, a tyrosine kinase called Jak3 (Janus-kinase 3) is recruited to the receptor at the plasma membrane. This kinase phosphorylates the tyrosine residues of multiple proteins including the γc-subunit, STAT5 (Signal Transducer and Activator of Transcription 5) and subunits of the PI3 (Phosphatidylinositol 3) kinase. Among these, the phosphorylation of STAT5 has been implicated in many studies as being linked to the proliferation of cells initiated by the γc-cytokine (Hennighausen and Robinson, 2008, Genes Dev 22:711-21). In accordance with these published data, whether or not the BNZ-γ peptide inhibits the tyrosine phosphorylation of STAT5 molecule in PT-18β cells stimulated by IL-15 was examined (results shown in FIG. 4).
PT-18β cells were stimulated by IL-15 in the presence or absence of BNZ-γ peptide. Cytoplasmic proteins were extracted from the cells according to a conventional method (Tagaya et al., 1996, EMBO J 15:4928-39). […]

[1] = system: NSG mice transplanted with huPBMCs and infected with LCMV; conditions: mouse, in vivo
[2] = system: pro-inflammatory cytokines IL-6, IFN-γ, TNF-α, and MCP-1; conditions: mouse, in vivo

**Q.** Which “growth-promoting activity of IL-15” value (IL-15) does the source give for “I-K-E-F-L-Q-R-F-I-H-I-V-Q-S-I-I-N-T-S (IKEFLQRFIHIVQSIINTS) [BNZ-γ]” here?
**A.** significantly (p<0.01 Student’s T test) reduced

**Q.** What about the “growth-promoting activity of IL-9” value (IL-9) of the same substance?
**A.** significantly (p<0.01 Student’s T test) reduced

**Q.** What about the “growth-promoting activity of IL-3 (a non γc-cytokine)” value (IL-3) of the same substance?
**A.** not inhibited

**Q.** What about the “cellular proliferation stimulated by IL-4” value (IL-4) of the same substance?
**A.** not affected

**Q.** What about the “IL-2 induced cellular proliferation” value (IL-2) of the same substance?
**A.** suppresses

**Q.** What about the “tyrosine phosphorylation of STAT5 induced by IL-15” value (STAT5) of the same substance?
**A.** markedly reduced

**Q.** What about the “protection from cytokine storm-induced mortality” value [1] of the same substance?
**A.** 100%

**Q.** What about the “survival over the 5-week study period” value [1] of the same substance?
**A.** survived the 5-week study period

**Q.** What about the “pro-inflammatory cytokine plasma levels” value [2] of the same substance?
**A.** drastically reduced

**Q.** And the “course of IL-6 plasma level over the measurement period” value ([2]; 2 mg/kg)?
**A.** clear incremental decreases

**Q.** And the “course of TNF-α plasma level over the measurement period” value ([2]; 2 mg/kg)?
**A.** clear incremental decreases

**Q.** What about the “drop in IFN-γ plasma level versus PBS vehicle control” value ([2]; 2 mg/kg) of the same substance?
**A.** 4.5 fold

**Q.** What about the “drop in IL-6 plasma level versus PBS vehicle control” value ([2]; 2 mg/kg) of the same substance?
**A.** 6 fold

**Q.** What about the “drop in MCP-1 plasma level versus PBS vehicle control” value ([2]; 2 mg/kg) of the same substance?
**A.** 7.5 fold

**Q.** What about the “drop in TNF-α plasma level versus PBS vehicle control” value ([2]; 2 mg/kg) of the same substance?
**A.** 7 fold
